In patent US20140314882A1, “Synergistic Combination Therapy” (President and Fellows of Harvard College, priority 2009, published 2014):

System: S. cerevisiae cells (strain BY4741)
Test: concentration matrix drug synergy test on S. cerevisiae growth (OD595 growth curves)

SMILES | effect on yeast growth
C/C1=C/C(=O)O[C@@H]2C[C@@H](CC[C@H](C)/C=C\CC1)O[C@@](O)([C@@H]1CSC(=O)N1)C2 [latrunculin B] | only mildly reduced yeast growth
C=CC[C@@H]1/C=C(\C)C[C@H](C)C[C@H](OC)[C@H]2O[C@@](O)(C(=O)C(=O)N3CCCC[C@H]3C(=O)O[C@H](/C(C)=C/[C@@H]3CC[C@@H](O)[C@H](OC)C3)[C@H](C)[C@@H](O)CC1=O)[C@H](C)C[C@@H]2OC [tacrolimus] | only mildly reduced yeast growth
